Source: article doi:10.1101/2025.07.04.663216, “A Computational Workflow for Structure-Guided Design of Potent and Selective Kinase Peptide Substrates” (bioRxiv, 2025)
One block for each sequence: values may come before it.

Key:
MET [1] = biological target: T1, MET (Homo sapiens, UniProt P08581); assay: ADP-Glo kinase assay, MET; format: biochemical; details: ADP-Glo luminescence; vs parent EEPLYWSFPAK; enzyme 1.25–10 nM, ATP 10 μM, peptide 1 μM, 90 min, 25°C; repeated twice, mean
T1 construct: purchased Carna Biosciences 08–151
T1 sequence (P08581 25-1390): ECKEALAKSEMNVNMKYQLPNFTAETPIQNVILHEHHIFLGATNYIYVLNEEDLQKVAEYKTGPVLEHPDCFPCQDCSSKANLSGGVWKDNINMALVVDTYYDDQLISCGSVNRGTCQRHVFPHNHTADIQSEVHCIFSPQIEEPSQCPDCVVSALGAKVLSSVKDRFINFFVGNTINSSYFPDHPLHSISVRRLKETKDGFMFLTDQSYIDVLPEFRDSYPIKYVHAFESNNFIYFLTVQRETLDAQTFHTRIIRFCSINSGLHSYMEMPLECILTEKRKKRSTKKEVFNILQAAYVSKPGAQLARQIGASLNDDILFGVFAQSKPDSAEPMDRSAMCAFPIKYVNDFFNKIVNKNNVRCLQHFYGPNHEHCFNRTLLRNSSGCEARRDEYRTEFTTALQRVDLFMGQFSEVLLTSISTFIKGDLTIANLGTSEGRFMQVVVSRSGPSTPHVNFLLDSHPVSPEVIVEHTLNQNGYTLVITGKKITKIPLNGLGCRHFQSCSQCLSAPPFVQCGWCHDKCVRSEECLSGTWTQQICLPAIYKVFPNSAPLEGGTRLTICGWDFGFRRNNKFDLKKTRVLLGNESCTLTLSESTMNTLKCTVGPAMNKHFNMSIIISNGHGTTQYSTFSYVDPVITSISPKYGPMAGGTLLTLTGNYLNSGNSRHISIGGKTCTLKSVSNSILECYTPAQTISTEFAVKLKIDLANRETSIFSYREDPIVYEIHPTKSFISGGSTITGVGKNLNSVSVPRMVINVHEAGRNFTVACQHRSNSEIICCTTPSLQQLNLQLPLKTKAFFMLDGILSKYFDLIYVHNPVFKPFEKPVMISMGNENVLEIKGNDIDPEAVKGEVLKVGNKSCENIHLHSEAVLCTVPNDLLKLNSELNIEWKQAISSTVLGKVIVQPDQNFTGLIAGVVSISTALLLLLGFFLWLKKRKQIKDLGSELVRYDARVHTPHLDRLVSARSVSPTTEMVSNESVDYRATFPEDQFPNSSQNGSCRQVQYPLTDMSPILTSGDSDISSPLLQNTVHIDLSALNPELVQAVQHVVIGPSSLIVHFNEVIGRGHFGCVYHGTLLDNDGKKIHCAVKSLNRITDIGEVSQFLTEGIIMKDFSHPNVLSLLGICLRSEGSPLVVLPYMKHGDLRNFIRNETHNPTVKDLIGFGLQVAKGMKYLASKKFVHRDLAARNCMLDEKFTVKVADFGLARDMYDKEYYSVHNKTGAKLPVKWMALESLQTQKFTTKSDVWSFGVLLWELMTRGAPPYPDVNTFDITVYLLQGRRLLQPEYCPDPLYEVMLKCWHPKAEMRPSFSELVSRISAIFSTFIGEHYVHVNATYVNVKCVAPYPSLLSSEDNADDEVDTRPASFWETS
Source text: (§1) To experimentally evaluate the computationally optimized peptide sequences, we chose five kinases based on commercial availability. Using the ipAE, pLDDT, and ipTM scores, we ranked the Subtimizer-designed sequences, and for each kinase we selected two to five peptides for synthesis and experimental testing. We evaluated the activity of the peptides using the ADP-Glo kinase assay, a luminescence-based method that quantifies ADP production as a measure of kinase activity. First, we measured the ADP-Glo signals for the parental peptide and the baseline (no enzyme background) for the five kinases. […] The varying signal intensities across different kinases reflect differences in their specific activities and the efficiency of the parent peptide substrates.
(§2) ADP-Glo Kit (ADP-Glo™ Kinase Assay, Cat#V6930) was obtained from Promega. The kinases ALK (#08–518), MET (#08–151), ROS1 (#08–163), and EGFR L858R (#08–502) were products of Carna Biosciences. SRC was expressed and purified as previously reported. Substrate peptides were obtained from Biomatik Corporation (Wilmington, DE, USA). All components were equilibrated to 25°C prior to setting up reactions in 384-well microplates (White ProxiPlate 384-shallow well Plus). […] Experiments were repeated twice with results expressed as mean ± standard deviation. Luminescence was detected on a Synergy Neo2 plate reader.

ALK [2] = biological target: T2, ALK (Homo sapiens, UniProt Q9UM73); assay: ADP-Glo kinase assay, ALK; format: biochemical; details: ADP-Glo luminescence; vs parent KSRGDYMTMQIG (axltide); enzyme 1.25–10 nM, ATP 10 μM, peptide 1 μM, 90 min, 25°C; repeated twice, mean
T2 construct: purchased Carna Biosciences 08–518
T2 sequence (Q9UM73 19-1620): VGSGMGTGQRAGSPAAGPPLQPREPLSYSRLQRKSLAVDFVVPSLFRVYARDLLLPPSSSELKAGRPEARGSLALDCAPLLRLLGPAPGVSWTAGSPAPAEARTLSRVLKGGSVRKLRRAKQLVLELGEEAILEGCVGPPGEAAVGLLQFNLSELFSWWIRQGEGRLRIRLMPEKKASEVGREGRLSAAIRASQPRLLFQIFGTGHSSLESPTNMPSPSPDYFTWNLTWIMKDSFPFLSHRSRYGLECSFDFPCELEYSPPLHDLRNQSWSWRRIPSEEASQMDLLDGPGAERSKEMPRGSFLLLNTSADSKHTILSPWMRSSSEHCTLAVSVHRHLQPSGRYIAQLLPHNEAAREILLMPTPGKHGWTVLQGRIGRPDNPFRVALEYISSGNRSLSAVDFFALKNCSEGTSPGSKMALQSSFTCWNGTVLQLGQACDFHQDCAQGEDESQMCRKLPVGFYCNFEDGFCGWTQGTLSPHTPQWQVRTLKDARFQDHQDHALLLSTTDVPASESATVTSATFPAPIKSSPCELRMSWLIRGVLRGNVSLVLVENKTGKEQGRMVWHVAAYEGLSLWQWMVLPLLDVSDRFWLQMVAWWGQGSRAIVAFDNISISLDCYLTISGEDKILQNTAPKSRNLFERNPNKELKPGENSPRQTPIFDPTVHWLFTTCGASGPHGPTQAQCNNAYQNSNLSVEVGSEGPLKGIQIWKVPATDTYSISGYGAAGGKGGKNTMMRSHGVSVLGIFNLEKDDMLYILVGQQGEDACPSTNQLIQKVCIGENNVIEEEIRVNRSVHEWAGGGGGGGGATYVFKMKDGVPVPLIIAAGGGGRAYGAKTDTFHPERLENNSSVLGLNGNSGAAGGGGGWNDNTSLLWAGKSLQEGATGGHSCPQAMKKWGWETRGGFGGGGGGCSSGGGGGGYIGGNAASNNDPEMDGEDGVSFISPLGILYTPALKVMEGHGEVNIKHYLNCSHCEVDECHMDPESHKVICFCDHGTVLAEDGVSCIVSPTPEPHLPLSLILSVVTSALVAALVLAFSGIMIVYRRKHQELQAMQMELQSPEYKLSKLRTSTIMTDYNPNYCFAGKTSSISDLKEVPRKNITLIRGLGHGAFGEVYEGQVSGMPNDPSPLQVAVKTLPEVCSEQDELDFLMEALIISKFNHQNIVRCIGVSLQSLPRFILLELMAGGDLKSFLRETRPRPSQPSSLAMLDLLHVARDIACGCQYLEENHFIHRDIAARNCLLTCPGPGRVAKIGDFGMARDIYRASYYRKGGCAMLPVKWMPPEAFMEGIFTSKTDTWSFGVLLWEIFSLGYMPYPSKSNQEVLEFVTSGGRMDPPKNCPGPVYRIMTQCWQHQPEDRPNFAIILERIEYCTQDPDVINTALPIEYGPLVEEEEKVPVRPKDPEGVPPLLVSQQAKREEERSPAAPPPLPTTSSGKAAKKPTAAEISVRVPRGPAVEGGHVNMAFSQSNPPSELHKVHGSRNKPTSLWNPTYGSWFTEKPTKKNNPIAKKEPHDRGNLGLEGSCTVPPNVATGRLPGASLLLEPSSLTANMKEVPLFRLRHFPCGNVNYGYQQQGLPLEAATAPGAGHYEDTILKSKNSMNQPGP
Source text: as §1, §2

EGFR L858R = assay: ADP-Glo kinase assay, EGFR L858R; format: biochemical; details: ADP-Glo luminescence; vs parent KEEIYFFF; enzyme 1.25–10 nM, ATP 10 μM, peptide 1 μM, 90 min, 25°C; repeated twice, mean
Source text: as §1, §2

[3] = Peptide solubility observed in Km study; format: physicochemical; details: observation in the Km study with EGFR L858R; peptide concentrations started at 300–400 μM
Source text: We ran LIMS-kinase assays using a range of peptide concentrations. We plotted the initial reaction rate for each concentration to generate Michaelis-Menten curves. […] We could not run a successful Km study with EGFR L858R due to the insolubility of the parental MS-csktide1 peptide at high concentrations, similar to our previous observation.

ALK [4] = biological target: T2, ALK; assay: LIMS-kinase assay kinetic analysis (Km), ALK; format: biochemical; details: MS signal of ADP fragment, ATP 100 μM, peptide from 300–400 μM, 2- or 3-fold dilutions, 25°C, Michaelis-Menten fit, repeated twice
Source text: (§3) Figures 3A and 3B illustrate the schematic of a kinase assay reaction and the multiple reaction monitoring (MRM) phosphorylation detection system employed in the LIMS-kinase assay. The MRM setup comprises a RapidFire liquid chromatography sampler (Agilent) coupled to a triple quadrupole mass spectrometer (AB Sciex 6500). Quadrupole 1 (Q1) acts as a mass filter, selecting precursor ions based on their mass-to-charge ratios. Q2 functions as a collision cell, fragmenting these precursor ions into product ions. Q3 serves as an additional mass filter, specifically monitoring desired product ion fragments originating from the Q1-selected parent ion (Figure 3B).
To determine kinase activity, we directly measured ADP production by following specific ADP ion fragments rather than quantifying phosphorylated peptide fragments as in our original published LIMS-kinase assay. […] We evaluated two enzyme concentrations with the objective of selecting the concentration where activity was linear to 60 minutes with a strong signal (Figure S5). […]
(§4) Final working concentrations of enzyme varied by kinase. […] Activity was evaluated by measuring MS signal of ADP-specific fragment ion. Experiments were repeated twice, with results expressed as mean ± standard deviation.
(§5) Km was evaluated by linear regression of the first three time-points at each concentration of peptide. […]

MET [5] = biological target: T1, MET; assay: LIMS-kinase assay kinetic analysis (Km), MET; format: biochemical; details: for Km: LIMS-kinase, MS signal of ADP fragment, ATP 100 μM, peptide from 300–400 μM, 2- or 3-fold dilutions, 25°C, Michaelis-Menten fit, repeated twice
Source text: as §3
(§6) To determine kinase activity, we directly measured ADP production by following specific ADP ion fragments rather than quantifying phosphorylated peptide fragments as in our original published LIMS-kinase assay. We chose to measure ADP production rather than the phosphorylated peptide product to avoid potential variations in ionization efficiency or fragmentation patterns that can arise from differences in amino acid sequences and physicochemical properties of different peptide substrates. This ensures not only a more direct and unbiased comparison of potency across different peptides, but also broad applicability of optimized substrates across different assay platforms. Initial tests confirmed that we were able to selectively detect an ADP fragment in kinase/peptide reactions (Figure S5). The ADP signal was enzyme concentration- and time-dependent, consistent with the expected response of a functional assay. […] We evaluated two enzyme concentrations with the objective of selecting the concentration where activity was linear to 60 minutes with a strong signal (Figure S5). […]
as §4, §5

ROS1 [6] = biological target: T3, ROS1 (Homo sapiens, UniProt P08922); assay: LIMS-kinase assay kinetic analysis (Km), ROS1; format: biochemical; details: for Km: LIMS-kinase, MS signal of ADP fragment, ATP 100 μM, peptide from 300–400 μM, 2- or 3-fold dilutions, 25°C, Michaelis-Menten fit, repeated twice
T3 construct: purchased Carna Biosciences 08–163
Source text: as §3, §6, §4, §5

MET [7] = biological target: T1, MET; assay: Peptide selectivity assay (LIMS-kinase), MET; format: biochemical; details: LIMS-kinase ADP production; MET 5 nM, peptides 134 μM, ATP 100 μM, 30 min, room temperature; repeated twice
Procedure: (§7) All components equilibrated to 25°C prior to setting up reactions. All reagents added manually. Peptides added to 384-well microplates (Costar 3657 round bottom polypropylene). A pre-mixed buffer, enzyme, and ATP solution was added to initiate reaction. Reaction was quenched with 1% formic acid (final) following 30-minute incubation at room temperature. Kinase activity was evaluated by measuring MS signal of ADP-specific fragment ion. Experiments were repeated twice, with results expressed as mean ± standard deviation. Time 0 (background) values were subtracted from subsequent time-points.
(§8) RapidFire liquid chromatography and mass spectrometry methods were performed as previously described.

ROS1 [8] = biological target: T3, ROS1; assay: ADP-Glo kinase assay, ROS1; format: biochemical; details: ADP-Glo luminescence; vs parent EEPLYWSFPAK; enzyme 1.25–10 nM, ATP 10 μM, peptide 1 μM, 90 min, 25°C; repeated twice, mean
Source text: as §1, §2

ROS1 [9] = biological target: T3, ROS1; assay: Peptide selectivity assay (LIMS-kinase), ROS1; format: biochemical; details: LIMS-kinase ADP production; ROS1 0.63 nM, peptides 20.3 μM, ATP 100 μM, 30 min, room temperature; repeated twice
Procedure: as §7, §8

Sequence: PDPDDYMLMEIG [alk-s4, designed ALK peptide substrate …]
relative percentage change (increase) in kinase activity compared to parent peptide (ALK [2]): 130%

Sequence: HDPEDYMWVEMR [alk-s3, designed ALK peptide substrate …]
Km (ALK [4]): 14.1 µM

Sequence: EPEGYAPL [egfr-s2]
relative percentage change (increase) in kinase activity compared to parent peptide (EGFR L858R): approximately 5%

Sequence: EEPAYVALPAK [met-s1]
Km (MET [5]): 134 µM
reduction in Km vs parental MS-srctide (MET [5]; MET, Km 288 to 134 µM): over 2 fold
reduction in ROS1 kinase activity compared to ros1-s2 (ROS1 [9]): over 11 fold
relative percentage change (increase) in kinase activity compared to parent peptide (MET [1]): approximately 41%

Continued, values first:

relative percentage change (increase) in kinase activity compared to parent peptide (MET [1]): ~11%
Sequence: EEPLYVALPAP [met-s2, designed MET peptide substrate …]

relative percentage change (increase) in kinase activity compared to parent peptide (EGFR L858R): about 10%
Sequence: EPEDYAPV [egfr-s1, designed EGFR L858R peptide substrate EPEDYAPV]

solubility at high concentrations [3]: insolubility
Sequence: KEEIYFFF [MS-csktide1, parental peptide substrate KEEIYFFF used for EGFR L858R]

Km (ALK [4]): 18.4 µM
Sequence: KSRGDYMTMQIG [MS-axltide, parental peptide substrate … used for ALK, reference compound]

relative percentage change (increase) in kinase activity compared to parent peptide (ALK [2]): 146%
Sequence: HSPEDYMWVEME [alk-s5, designed ALK peptide substrate …]

Km (MET [5]): 288 µM
Km (ROS1 [6]): 47.6 µM
Sequence: EEPLYWSFPAK [MS-srctide, parental peptide substrate … for many kinases including MET and ROS1, reference compound]

reduction in MET kinase activity compared to met-s1 (MET [7]): over 4 fold
relative percentage change (increase) in kinase activity compared to parent peptide (ROS1 [8]): about 35%
Km (ROS1 [6]): 20.3 µM
improvement in apparent binding affinity (Km) vs parental MS-srctide (ROS1 [6]; ROS1, Km 47.59 to 20.30 µM): > 2 fold
Sequence: KEPFYMRLKPK [ros1-s2]
